Legend:
Type in all cases: cell-based
TGR4 [1] = target: T1, TGR4 (Homo sapiens, UniProt Q9H1C0); experiment: Reporter gene (CRE-luciferase) expression level in cells with transient TGR4 expression; set-up: expressed in transfected cells; host or cells: CHO-mock cells (CHO(dhfr-) transformed with pAKKO-111H), transiently transfected with pAK-TGR4, pAK-Gi and pCRE-Luc; details: TGR4 gene-transfected CHO-mock cells (co-transfected with pAK-Gi and pCRE-Luc), 4 hours, FIG. 4
Source text: TGR4 cDNA or inhibitory G protein α subunit Gi cDNA was inserted into the animal cell expression vector plasmid pAKKO-111H (the plasmid vector identical to the pAKKO-1.11H described in Biochim. Biophys. Acta, Hinuma, S., et al., 1219, 251-259, 1994) by publicly known methods. The expression vector plasmids pAK-TGR4 and pAK-Gi thus produced and pAKKO-111H without any particular gene inserted were transfected to CHO cells by the following procedures.
First, using these vectors, Escherichia coli JM109 was transformed; after the colony obtained was isolated and incubated, a plasmid was prepared using QIAGEN Plasmid Maxi Kit (Qiagen, Inc.). […]
Geranylgeranyl diphosphate (GGPP, Sigma, Inc.), farnesyl diphosphate (FPP, Sigma, Inc.) and lysophosphatidic acid (LPA, Sigma, Inc.) were diluted in the assay buffer, respectively, and each dilution was added to the transfected CHO-mock cells described above in a concentration of 1, 0.1 and 0.01 μM, followed by incubation at 37° C. for 4 hours under 5% CO2. The culture supernatant was discarded and 50 μl of a substrate for assaying an luciferase activity or PicaGene LT 2.0 (Toyo Ink Mfg. Co., Ltd.) was added, and the luminescence amount of luciferase was assayed by using a plate reader (ARVO sx multi-label counter, Walac, Inc.).

TGR4 [2] = target: T1, TGR4; experiment: Intracellular calcium ion mobilization activity in TGR4-expressed CHO cells (FLIPR); set-up: expressed in transfected cells; host or cells: CHO cells stably expressing TGR4 (CHO-TGR4); details: 2.5 μM; CHO-TGR4 compared with CHO-mock cells; about 3 minutes after addition; FIGS. 5 and 6
Description: Using the plasmids for TGR4 expression prepared in EXAMPLE 3, CHO-TGR4 as CHO cells for stable TGR4 expression was prepared by a publicly known method. CHO-mock cells with neither CHO-TGR4 nor receptor gene introduced were plated in a 96-well black plate (Costar, Inc.) with the clear bottom in a concentration of 3000 cells/well, and cultured overnight at 37° C. under 5% CO2. The culture solution was used for assay. A wash buffer was prepared by adding 20 mM HEPES, pH 7.4 and 2.5 mM probenecid (Sigma, Inc.) to Hank's balanced salt solution (HBSS, Gibco BRL, Inc.). As a sample buffer, the wash buffer supplemented with 0.1% bovine serum albumin (BSA, Sigma, Inc.) was used. As a dye loading solution there was used a mixture prepared by adding 1% FBS, 4 μM Fluo 3-AM (Wako Pure Chemical Industry Co., Ltd.) and 0.04% Pluronic acid (Molecular Probes, Inc.) to the wash buffer. The medium of the cells was discarded and the dye loading solution was added. After incubation at 37° C. for an hour, the cells were washed with the wash buffer using a plate washer. The cells were set on Fluorometric Imaging Plate Reader (FLIPR, Molecular Devices, Inc.) and a change of the intracellular calcium ion level was measured for about 3 minutes after addition of the sample. As the sample, FPP or LPA was added in a concentration of 2.5 μM.

TGR4 [3] = target: T1, TGR4; experiment: Intracellular cAMP production amount in TGR4-expressed CHO cells; set-up: expressed in transfected cells; host or cells: CHO cells stably expressing TGR4 (CHO-TGR4); details: 2 μM; CHO-TGR4 compared with CHO-mock cells; 30 minutes at 37° C.; n is 3; FIGS. 7 and 8
Description: CHO-mock cells with neither CHO-TGR4 nor receptor gene introduced, which were prepared in EXAMPLE 4, were plated in a 96-well plate (Beckton-Dickinson, Inc.) in 25,000 cells/well, followed by incubation overnight at 37° C. under 5% CO2. This culture solution was used for assay. A sample buffer used was HBSS supplemented with 0.1% BSA and 0.2 mM I BMX (Sigma, Inc.). The cells were washed twice with the sample buffer and pre-incubated at 37° C. for 30 minutes. The cells were further washed twice and the sample was added thereto followed by incubation at 37° C. for 30 minutes. The sample was added in 2 μM of farnesyl diphosphate or lysophosphatidic acid. After incubation in the presence of the sample, the amount of intracellular cAMP production was assayed by using cAMP Screen System (ABI).

T1 sequence (Q9H1C0 whole entry): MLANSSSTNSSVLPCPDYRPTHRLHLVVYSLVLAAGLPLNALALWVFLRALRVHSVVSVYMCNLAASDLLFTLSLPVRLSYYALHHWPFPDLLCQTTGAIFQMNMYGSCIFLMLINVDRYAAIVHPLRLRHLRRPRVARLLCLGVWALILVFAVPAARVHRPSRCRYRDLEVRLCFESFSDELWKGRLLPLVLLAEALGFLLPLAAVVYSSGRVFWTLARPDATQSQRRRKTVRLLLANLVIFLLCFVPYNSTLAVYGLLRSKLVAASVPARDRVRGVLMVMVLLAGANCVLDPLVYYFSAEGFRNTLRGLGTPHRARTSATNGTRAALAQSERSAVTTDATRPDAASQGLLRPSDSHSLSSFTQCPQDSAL

Compound | luciferase activity (TGR4 [1]; 1 and 0.1 μM) | intracellular calcium ion mobilization activity (TGR4 [2]) | amount of intracellular cAMP production (TGR4 [3]) | luciferase activity (TGR4 [1]; 1 μM)
CC(C)=CCC/C(C)=C/CC/C(C)=C/CC/C(C)=C/COP(=O)(O)OP(=O)(O)O [GGPP, Geranylgeranyl diphosphate] | increased luciferase activity |  |  | 
lysophosphatidic acid [LPA] |  | increased specifically to CHO-TRG4 | increased specifically to CHO-TRG4 | increased luciferase activity
